Test results as given in the NIST ThermoML archive (doi:10.1016/j.jct.2007.01.009).
± gives the expanded uncertainty stated by the source.

Test: xn = mol fraction of the nth substance listed
Conditions: 101 kPa, Liquid, Pycnometric method

For `OCCCCCCO` [1,6-hexanediol] + O, the mass density (283.15 K, x1 = 0.0009) was 999.67 ± 0.3 kg/m3, the mass density (283.15 K, x1 = 0.0019) was 999.65 ± 0.3 kg/m3 and the mass density (283.15 K, x1 = 0.0037) was 999.63 ± 0.3 kg/m3. For the same molecule, the mass density (283.15 K, x1 = 0.0054) was 999.64 ± 0.3 kg/m3, the mass density (283.15 K, x1 = 0.0074) was 999.66 ± 0.3 kg/m3 and the mass density (283.15 K, x1 = 0.009) was 999.68 ± 0.31 kg/m3. For the same molecule, the mass density (283.15 K, x1 = 0.0107) was 999.71 ± 0.31 kg/m3, the mass density (283.15 K, x1 = 0.0125) was 999.76 ± 0.31 kg/m3 and the mass density (283.15 K, x1 = 0.0145) was 999.83 ± 0.31 kg/m3. For the same molecule, the mass density (283.15 K, x1 = 0.0159) was 999.88 ± 0.31 kg/m3, the mass density (283.15 K, x1 = 0.0177) was 999.96 ± 0.31 kg/m3 and the mass density (283.15 K, x1 = 0.0349) was 1000.78 ± 0.31 kg/m3. It also gave a mass density (283.15 K, x1 = 0.0514) of 1001.11 ± 0.31 kg/m3, a mass density (283.15 K, x1 = 0.0694) of 1001.08 ± 0.31 kg/m3 and a mass density (283.15 K, x1 = 0.0983) of 1000.63 ± 0.31 kg/m3. For the same molecule, the mass density (283.15 K, x1 = 0.112) was 1000.09 ± 0.32 kg/m3, the mass density (288.15 K, x1 = 0.0009) was 999.02 ± 0.29 kg/m3 and the mass density (288.15 K, x1 = 0.0019) was 998.96 ± 0.29 kg/m3. For the same molecule, the mass density (288.15 K, x1 = 0.0037) was 998.86 ± 0.29 kg/m3, the mass density (288.15 K, x1 = 0.0054) was 998.8 ± 0.29 kg/m3 and the mass density (288.15 K, x1 = 0.0074) was 998.78 ± 0.29 kg/m3. It also gave a mass density (288.15 K, x1 = 0.009) of 998.78 ± 0.29 kg/m3, a mass density (288.15 K, x1 = 0.0107) of 998.8 ± 0.29 kg/m3 and a mass density (288.15 K, x1 = 0.0125) of 998.83 ± 0.29 kg/m3. It also gave a mass density (288.15 K, x1 = 0.0145) of 998.88 ± 0.29 kg/m3, a mass density (288.15 K, x1 = 0.0159) of 998.92 ± 0.29 kg/m3 and a mass density (288.15 K, x1 = 0.0177) of 998.98 ± 0.29 kg/m3. For the same molecule, the mass density (288.15 K, x1 = 0.0349) was 999.42 ± 0.3 kg/m3, the mass density (288.15 K, x1 = 0.0514) was 999.3 ± 0.3 kg/m3 and the mass density (288.15 K, x1 = 0.0694) was 998.88 ± 0.3 kg/m3. It also gave a mass density (288.15 K, x1 = 0.0983) of 997.95 ± 0.3 kg/m3, a mass density (288.15 K, x1 = 0.112) of 997.54 ± 0.3 kg/m3 and a mass density (293.15 K, x1 = 0.0009) of 998.12 ± 0.28 kg/m3. For the same molecule, the mass density (293.15 K, x1 = 0.0019) was 998.04 ± 0.28 kg/m3, the mass density (293.15 K, x1 = 0.0037) was 997.92 ± 0.28 kg/m3 and the mass density (293.15 K, x1 = 0.0054) was 997.84 ± 0.28 kg/m3. For the same molecule, the mass density (293.15 K, x1 = 0.0074) was 997.78 ± 0.28 kg/m3, the mass density (293.15 K, x1 = 0.009) was 997.76 ± 0.28 kg/m3 and the mass density (293.15 K, x1 = 0.0107) was 997.72 ± 0.28 kg/m3. It also gave a mass density (293.15 K, x1 = 0.0125) of 997.7 ± 0.28 kg/m3, a mass density (293.15 K, x1 = 0.0145) of 997.68 ± 0.28 kg/m3 and a mass density (293.15 K, x1 = 0.0159) of 997.67 ± 0.28 kg/m3. The mass density (293.15 K, x1 = 0.0177) was 997.66 ± 0.28 kg/m3, the mass density (293.15 K, x1 = 0.0349) was 997.56 ± 0.28 kg/m3 and the mass density (293.15 K, x1 = 0.0514) was 997.34 ± 0.29 kg/m3. For the same molecule, the mass density (293.15 K, x1 = 0.0694) was 996.87 ± 0.29 kg/m3, the mass density (293.15 K, x1 = 0.0983) was 995.62 ± 0.29 kg/m3 and the mass density (293.15 K, x1 = 0.112) was 994.84 ± 0.29 kg/m3. For the same molecule, the mass density (298.15 K, x1 = 0.0009) was 996.93 ± 0.3 kg/m3, the mass density (298.15 K, x1 = 0.0019) was 996.83 ± 0.29 kg/m3 and the mass density (298.15 K, x1 = 0.0037) was 996.68 ± 0.29 kg/m3. For the same molecule, the mass density (298.15 K, x1 = 0.0054) was 996.58 ± 0.29 kg/m3, the mass density (298.15 K, x1 = 0.0074) was 996.49 ± 0.29 kg/m3 and the mass density (298.15 K, x1 = 0.009) was 996.43 ± 0.29 kg/m3. The mass density (298.15 K, x1 = 0.0107) was 996.38 ± 0.29 kg/m3, the mass density (298.15 K, x1 = 0.0125) was 996.32 ± 0.29 kg/m3 and the mass density (298.15 K, x1 = 0.0145) was 996.26 ± 0.29 kg/m3. It also gave a mass density (298.15 K, x1 = 0.0159) of 996.23 ± 0.29 kg/m3, a mass density (298.15 K, x1 = 0.0177) of 996.18 ± 0.3 kg/m3 and a mass density (298.15 K, x1 = 0.0349) of 995.67 ± 0.3 kg/m3. For the same molecule, the mass density (298.15 K, x1 = 0.0514) was 995.07 ± 0.3 kg/m3, the mass density (298.15 K, x1 = 0.0694) was 994.3 ± 0.3 kg/m3 and the mass density (298.15 K, x1 = 0.0983) was 992.81 ± 0.3 kg/m3. The mass density (298.15 K, x1 = 0.112) was 992.04 ± 0.3 kg/m3, the mass density (303.15 K, x1 = 0.0009) was 995.54 ± 0.31 kg/m3 and the mass density (303.15 K, x1 = 0.0019) was 995.42 ± 0.31 kg/m3. For the same molecule, the mass density (303.15 K, x1 = 0.0037) was 995.24 ± 0.31 kg/m3, the mass density (303.15 K, x1 = 0.0054) was 995.11 ± 0.3 kg/m3 and the mass density (303.15 K, x1 = 0.0074) was 994.99 ± 0.3 kg/m3. It also gave a mass density (303.15 K, x1 = 0.009) of 994.89 ± 0.3 kg/m3, a mass density (303.15 K, x1 = 0.0107) of 994.79 ± 0.3 kg/m3 and a mass density (303.15 K, x1 = 0.0125) of 994.69 ± 0.3 kg/m3. It also gave a mass density (303.15 K, x1 = 0.0145) of 994.59 ± 0.3 kg/m3, a mass density (303.15 K, x1 = 0.0159) of 994.52 ± 0.3 kg/m3 and a mass density (303.15 K, x1 = 0.0177) of 994.43 ± 0.31 kg/m3. For the same molecule, the mass density (303.15 K, x1 = 0.0349) was 993.61 ± 0.31 kg/m3, the mass density (303.15 K, x1 = 0.0514) was 992.8 ± 0.31 kg/m3 and the mass density (303.15 K, x1 = 0.0694) was 991.84 ± 0.31 kg/m3. The mass density (303.15 K, x1 = 0.0983) was 990.14 ± 0.31 kg/m3, the mass density (303.15 K, x1 = 0.112) was 989.26 ± 0.31 kg/m3 and the mass density (308.15 K, x1 = 0.0009) was 993.92 ± 0.32 kg/m3. The mass density (308.15 K, x1 = 0.0019) was 993.78 ± 0.32 kg/m3, the mass density (308.15 K, x1 = 0.0037) was 993.57 ± 0.32 kg/m3 and the mass density (308.15 K, x1 = 0.0054) was 993.41 ± 0.32 kg/m3. It also gave a mass density (308.15 K, x1 = 0.0074) of 993.24 ± 0.32 kg/m3, a mass density (308.15 K, x1 = 0.009) of 993.11 ± 0.32 kg/m3 and a mass density (308.15 K, x1 = 0.0107) of 992.99 ± 0.32 kg/m3. The mass density (308.15 K, x1 = 0.0125) was 992.87 ± 0.32 kg/m3, the mass density (308.15 K, x1 = 0.0145) was 992.74 ± 0.32 kg/m3 and the mass density (308.15 K, x1 = 0.0159) was 992.65 ± 0.32 kg/m3. For the same molecule, the mass density (308.15 K, x1 = 0.0177) was 992.54 ± 0.32 kg/m3, the mass density (308.15 K, x1 = 0.0349) was 991.57 ± 0.32 kg/m3 and the mass density (308.15 K, x1 = 0.0514) was 990.58 ± 0.32 kg/m3. For the same molecule, the mass density (308.15 K, x1 = 0.0694) was 989.39 ± 0.32 kg/m3, the mass density (308.15 K, x1 = 0.0983) was 987.3 ± 0.32 kg/m3 and the mass density (308.15 K, x1 = 0.112) was 986.33 ± 0.32 kg/m3.
